Reference: US20200024278A1, “COMPOSITION COMPRISING ANTIBIOTIC COMPOUND AND AN HETEROCYCLIC COMPOUND AND THEIR USE IN PREVENTING OR TREATING BACTERIAL INFECTIONS” (MUTABILIS, priority 2016, published 2020)

Assays:
Assay in all cases: MIC, broth microdilution (CLSI), substance alone or ATB combined with compound at 4 or 8 μg/mL
ECO UFR39 = format: cell-based, E. coli; settings: ECO UFR39; for MIC ATB combined with Example compound: compound @8 μg/ml
Procedure, shortened: (§1)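 Broth microdilution; ca-MHB; 5·10^5 CFU/mL; 35° C, 16-20 h; compound alone or fixed 4/8 μg/mL with antibiotic series; endpoint = no visible growth.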

SAU 29213 = format: cell-based, S. aureus; settings: for MIC ATB combined with Example / MIC ATB combined with Example compound: SAU 29213; for MIC ATB combined with Example: Example @8 μg/ml; for MIC ATB combined with Example compound: compound @8 μg/ml
Procedure, shortened: as §1

PAE 105250 = format: cell-based, P. aeruginosa; settings: PAE 105250; for MIC ATB combined with Example: Example @8 μg/ml; for MIC ATB combined with Example compound: compound @8 μg/ml
Procedure, shortened: as §1

PAE UFR90 = format: cell-based, P. aeruginosa; settings: PAE UFR90; for MIC ATB combined with Example: Example @8 μg/ml; for MIC ATB combined with Example compound: compound @8 μg/ml
Procedure, shortened: as §1

PAE UFR48 = format: cell-based, P. aeruginosa; settings: PAE UFR48; for MIC ATB combined with Example: Example @8 μg/ml; for MIC ATB combined with Example compound: compound @8 μg/ml
Procedure, shortened: as §1

ECL P99 = format: cell-based, E. cloacae; settings: ECL P99; for MIC ATB combined with Example: Example @8 μg/ml
Procedure, shortened: as §1

O=C1N2CC(n3ccnn3)=CC(C2)N1OS(=O)(=O)[O-].[Na+] (centres unmarked) [Example 12, sodium [7-oxo-3-(triazol-1-yl)-1,6-diazabicyclo[3.2.1]oct-3-en-6-yl] sulfate]
MIC ATB combined with Example (ECO UFR39; ATB PIP, Example @8 μg/ml): <0.031 µg/mL | MIC ATB combined with Example compound (ECO UFR39; MIC of CIP): <0.031 µg/mL | MIC ATB combined with Example compound (ECO UFR39; MIC of CPO): <0.031 µg/mL | MIC (ECO UFR39; substance alone): 1 µg/mL | MIC ATB combined with Example (SAU 29213; ATB ATM): <0.031 µg/mL | MIC ATB combined with Example (SAU 29213; ATB FEP): <0.031 µg/mL | MIC ATB combined with Example (SAU 29213; ATB FOS): <0.125 µg/mL | MIC ATB combined with Example (SAU 29213; ATB MEM): <0.031 µg/mL | MIC ATB combined with Example (SAU 29213; ATB PIP): <0.031 µg/mL | MIC ATB combined with Example compound (SAU 29213; MIC of CIP): <0.031 µg/mL | MIC ATB combined with Example compound (SAU 29213; MIC of CLI): <0.0010 µg/mL | MIC ATB combined with Example compound (SAU 29213; MIC of CPO): <0.031 µg/mL | MIC ATB combined with Example compound (SAU 29213; MIC of DAP): <0.0020 µg/mL | MIC ATB combined with Example compound (SAU 29213; MIC of ERY): <0.0020 µg/mL | MIC ATB combined with Example compound (SAU 29213; MIC of LZD): <0.0078 µg/mL | MIC ATB combined with Example compound (SAU 29213; MIC of RIF): <0.00012 µg/mL | MIC ATB combined with Example compound (SAU 29213; MIC of SYN): <0.0020 µg/mL | MIC ATB combined with Example compound (SAU 29213; MIC of VAN): <0.0039 µg/mL | MIC (SAU 29213; substance alone, SAU 29213 (MSSA 29213)): 8 µg/mL | MIC ATB combined with Example (PAE 105250; ATB ATM): 8 µg/mL | MIC ATB combined with Example (PAE 105250; ATB FEP): 2 µg/mL | MIC ATB combined with Example (PAE 105250; ATB FOS): >128 µg/mL | MIC ATB combined with Example (PAE 105250; ATB MEM): 1 µg/mL | MIC ATB combined with Example (PAE 105250; ATB PIP): 32 µg/mL | MIC ATB combined with Example compound (PAE 105250; MIC of CIP): 0.125 µg/mL | MIC ATB combined with Example compound (PAE 105250; MIC of CPO): 8 µg/mL | MIC (PAE 105250; substance alone): >32 µg/mL | MIC ATB combined with Example (PAE UFR90; ATB ATM): 16 µg/mL | MIC ATB combined with Example (PAE UFR90; ATB FEP): 4 µg/mL | MIC ATB combined with Example (PAE UFR90; ATB FOS): 8 µg/mL | MIC ATB combined with Example (PAE UFR90; ATB MEM): 1 µg/mL | MIC ATB combined with Example (PAE UFR90; ATB PIP): >32 µg/mL | MIC ATB combined with Example compound (PAE UFR90; MIC of CIP): 1 µg/mL | MIC ATB combined with Example compound (PAE UFR90; MIC of CPO): 8 µg/mL | MIC (PAE UFR90; substance alone): >32 µg/mL | MIC ATB combined with Example (PAE UFR48; ATB ATM): 8 µg/mL | MIC ATB combined with Example (PAE UFR48; ATB FEP): 16 µg/mL | MIC ATB combined with Example (PAE UFR48; ATB FOS): 16 µg/mL | MIC ATB combined with Example (PAE UFR48; ATB MEM): 0.5 µg/mL | MIC ATB combined with Example (PAE UFR48; ATB PIP): 16 µg/mL | MIC ATB combined with Example compound (PAE UFR48; MIC of CIP): 4 µg/mL | MIC ATB combined with Example compound (PAE UFR48; MIC of CPO): >32 µg/mL | MIC (PAE UFR48; substance alone): >32 µg/mL | MIC ATB combined with Example (ECL P99; ATB ATM): <0.031 µg/mL | MIC ATB combined with Example (ECL P99; ATB FEP): <0.031 µg/mL | MIC ATB combined with Example (ECL P99; ATB FOS): <0.125 µg/mL | MIC ATB combined with Example (ECL P99; ATB MEM): <0.031 µg/mL | MIC ATB combined with Example (ECL P99; ATB PIP): <0.031 µg/mL | MIC ATB combined with Example compound (ECL P99; MIC of CIP, compound @8 μg/ml): <0.031 µg/mL | MIC (ECL P99; substance alone): 1 µg/mL
